In a melting point compilation (Tetko et al.):

Conditions: a range is the spread between reports

Compound	melting point [°C]
CCCCCCCCCCCCCCCCCO	53.8 to 58
O=C(O)CC(S)C(=O)O (stereo unspecified)	149 to 152
Brc1ccccc1-c1ccccc1	1 to 2
O=C(O)COc1ccccc1	98.5 to 100
CCCCC(CC)COC(=O)CCCCC(=O)OCC(CC)CCCC (stereo unspecified)	-67.8 to -67
c1ccc(Cn2ccnc2)cc1	69 to 71
O=S(=O)(Cc1ccccc1)Cc1ccccc1	151 to 152
CCCC	-138 to -137
CN1CCC(O)CC1	28 to 29
CCCC(=O)OCCC(C)C	-73.2 to -73
CCCCCCN	-23 to -19
ClCc1ccc(Cl)cc1	28 to 31
CC1OC1C (stereo unspecified)	-85 to -80
CCCCCCCCCCCCCCO	39 to 40
CC1CCC(C)C1C (stereo unspecified)	-116 to -112
C/C=C/CC(C)C	-124
C=C1C2CCC(C2)C1(C)C (stereo unspecified)	50 to 52
O=S(=O)(c1ccc(Cl)cc1)c1ccc(Cl)cc1	148 to 149
FC(F)(F)C(F)(F)F	-101 to -100
CCCCCCC(O)C(=O)O (stereo unspecified)	69 to 70
CCCC(C)Br (stereo unspecified)	-96 to -95.5
Nc1ccc(-c2ccccc2)cc1	53 to 54
ClCCCCl	-100 to -99.5
C=CC(=O)O	12.5 to 13.5

Compound	melting point [°C]
O=C(Cl)c1ccccc1Br	10 to 11
CCCCCCCCCCCCCCCCS	19 to 21
ClCCCl	-36 to -35
CC(S)C(=O)O (stereo unspecified)	11 to 12
C=CCC(C)(C)C	-137
C=CCC1(C(C)CCC)C(=O)NC(=O)NC1=O (stereo unspecified)	95 to 100
CCCCCCBr	-85 to -84.7
FC(C(F)(F)F)C(F)(F)F	-131 to -127
CCCCCCCCCCCCC=O	14 to 15
COc1ccccc1N	5 to 6.2
O=P(O)(O)c1ccccc1	161 to 164
CS(C)(=O)=O	109 to 110
ClCC(CCl)(CCl)CCl	95 to 97
N#CCc1ccccc1	-24 to -23.8
Nc1cccnc1	61 to 64.5
CC=C(C)CC	-138 to -135
CCC(C)(C)C(C)(C)C	-10 to -9.8
C[N+](=O)[O-]	-29 to -28.5
N#Cc1ccccn1	27 to 29
CCNC(=O)C(=O)NCC	175 to 180
CCCCC1CCCCC1	-78 to -74.7
CCCCCCCCCCCCCCCCCCCCCCCCCCCCC	63.7 to 66
CC1CCC2CC1C2(C)C (stereo unspecified)	-53 to -50
N#Cc1c[nH]c2ccccc12	180

Compound	melting point [°C]
Clc1cccc(Cl)c1	-25 to -24.8
CCC(CC)C(C)(C)C	-99.3 to -99
OC1(c2ccccc2)CCCCC1	60 to 63.5
CC1CCCCC1	-127 to -126
C=CCCCCCCCCC(=O)O	24 to 24.5
c1cc2cccc3c4cccc5cccc(c(c1)c23)c54	274 to 278
c1ccc(-c2ccccc2)cc1	69 to 71
NCCCCCO	35 to 38.5
O=C1C=CC(=O)C=C1	114 to 116
OCCCCCO	-18 to -16
C=CCCCCCCCCCCCCCCC	11 to 11.5
CCN=c1nc(Cl)[nH]c(=NC(C)C)[nH]1	172 to 177
CCCCCCCCCCCCO	24 to 26
CCCCl	-123 to -122
O=C(O)COc1ccc(Cl)cc1	159 to 164
O=C1CCCCC1=O	37 to 40
CCC/C=C/C(=O)O	33 to 36.5
FC(F)(F)F	-184
CCC(=O)c1ccccc1	18 to 19
CCCCCCCCCCCCCCCCCCCCCCCCCCCCCCCC	69.7 to 70
O=C(O)CCI	81.5 to 82
CCCCCCCCCCCl	-31.3 to -31
CCCC(=O)O	-8 to -5
CC(=O)c1ccc(Br)cc1	50.5 to 51

Compound	melting point [°C]
c1cc[nH]c1	-23.4
CCCCS(=O)CCCC	32.6 to 33
Oc1c(Cl)cccc1Cl	65 to 68.5
CC(=O)OCC(C)C	-99 to -98.8
N#C/C=C/c1ccccc1	19 to 22
Oc1cc(Cl)c(Cl)cc1Cl	65.5 to 69
Cc1cccc(C)c1N	8 to 12
NC(=S)Nc1ccccc1	149 to 154
OC1CCCCC1O (stereo unspecified)	100 to 102
O=C(NNc1ccccc1)NNc1ccccc1	170 to 173
CO[C@@H]1O[C@H](CO)[C@H](O)[C@H](O)[C@H]1O	172 to 177
O=[N+]([O-])NC1=NCCN1Cc1ccc(Cl)nc1	140 to 144
CC(C)CCCC(C)C1CCC2C3CC(O)C4(O)CC(O)CCC4(C)C3CCC12C (stereo unspecified)	237 to 238
O=C(O)CCCCCCC(=O)O	143 to 144
CS	-123 to -121
C#CCCCCCCCCCCCCCCCC	22.5 to 27
CCC1CCC1	-143
CCn1cc(C(=O)O)c(=O)c2cc(F)c(N3CCNC(C)C3)c(F)c21 (stereo unspecified)	240
Cc1c2ccccc2cc2ccccc12	78 to 81.5
CCCCCC(C)(C)O	-50.4 to -50
O=C(CCl)CCl	44 to 45
O=C(O)CCCCCCCCC(=O)O	131 to 134
CC(=O)Cl	-113 to -112

Further lines, results first:

melting point [°C]	Compound
108 to 109	Oc1ccc2[nH]ccc2c1
200 to 202	NC(=O)c1ccc([N+](=O)[O-])cc1
220 to 222	O=C(O)c1cc2ccccc2cc1O
150	O=C1c2ccccc2C(=O)C1c1ccccc1
138 to 139	O=C(O)c1ccsc1
-9 to -6.6	Cc1cncc(C)c1
26.8 to 28	c1ccc(Oc2ccccc2)cc1
108 to 109	C=CCc1ccccc1OCC(O)CNC(C)C (stereo unspecified)
94 to 96.5	Cc1ccc(C(=O)c2ccc(C)cc2)cc1
162 to 163	Cc1occc(=O)c1O
44 to 46.5	O=[N+]([O-])c1cccs1
124 to 128	NNC(=O)Nc1ccccc1
28 to 32	COc1ccccc1O
177 to 179	Cc1ccccc1NC(=N)Nc1ccccc1C
68 to 71	Cc1ccc(S(=O)(=O)Cl)cc1
29 to 31	Cc1ccc(S)c(S)c1
-62.3 to -62	CCc1ccc(C)cc1
10 to 13.5	COc1ccc(Br)cc1
229 to 233	O=C(O)c1ccc2c(c1)OCO2
156 to 157	O=[N+]([O-])c1ccc2c(c1)Cc1ccccc1-2
139 to 142	O=C(O)c1ccccc1Cl
176 to 177	NC(=O)c1ccccc1[N+](=O)[O-]
73 to 75	Sc1ccc(Br)cc1
148 to 150	O=C(O)COc1ccccc1Cl
60.9 to 61	O=[N+]([O-])c1cccc(S(=O)(=O)Cl)c1
204	COc1cc(NS(=O)(=O)c2ccc(N)cc2)nc(OC)n1

melting point [°C]	Compound
133 to 134	[O-][S+](Cc1ccccc1)Cc1ccccc1
89.3 to 91	Cn1c2ccccc2c2ccccc21
45.8 to 47	Nc1ccccc1Oc1ccccc1
55 to 57	COc1ccc(O)cc1
109 to 111	CC(=O)C1C(=O)C=C(C)OC1=O (stereo unspecified)
50.8 to 53	O=c1cccccc1O
85 to 86	c1ccc(Cc2ccc(-c3ccccc3)cc2)cc1
67 to 71	O=C(Oc1ccccc1)c1ccccc1
52 to 54.8	OC1CCc2ccccc21 (stereo unspecified)
102 to 107	CC1=CC(=O)c2ccccc2C1=O
196	CN(C)CCC=C1c2ccccc2CCc2ccccc21
88.5 to 89	Cc1cc(C=O)c(C)n1-c1ccccc1
255 to 259	CC12CCC3c4ccc(O)cc4CCC3C1CCC2=O (stereo unspecified)
48 to 52.3	C#CC(C)(O)c1ccccc1 (stereo unspecified)
-100 to -99	CCCc1ccccc1
198 to 200	Nc1ccc(C(=O)NCC(=O)O)cc1
118 to 120	COC(=O)c1ccc(O)cc1O
-21.5 to -21	c1ccc2c(c1)CCO2
33 to 36	O=C(Cl)c1cccc([N+](=O)[O-])c1
138 to 139	O=C(O)c1cc(Cl)ccc1[N+](=O)[O-]
59 to 60.5	CN(C)c1cccc([N+](=O)[O-])c1
163 to 166	CC(=O)Nc1ccc(N)cc1
31 to 33.5	Cc1cccnc1N
70 to 71	CC(=O)OCC(C(OC(C)=O)c1ccccc1)[N+](=O)[O-] (stereo unspecified)
56.5 to 58	COc1cc(N)ccc1C
93.5 to 98	N#Cc1ccccc1O

melting point [°C]	Compound
105 to 107	O=C(Oc1ccc2ccccc2c1)c1ccccc1
105 to 106	SC(c1ccccc1)(c1ccccc1)c1ccccc1
179 to 181	Sc1nc2ccccc2s1
159 to 160	O=C(O)Cc1c(Cl)cccc1Cl
204 to 206	O=C(O)c1cccc(O)c1O
88 to 91	COc1ccc(-c2ccccc2)cc1
168 to 169	Cc1cc(C)c(CC(=O)O)c(C)c1
164 to 168	c1ccc2c(c1)-c1cccc3c1c-2cc1ccccc13
136 to 137	O=C(Nc1ccccc1)c1ccccc1O
-14 to -13.5	CCc1cc(C)c(C)cc1C
173 to 176	O=[N+]([O-])c1ccc(I)cc1
-88 to -87.5	CCC(=O)OC
174 to 175	Cc1ccnc(-c2cc(C)ccn2)c1
72 to 73	Cc1cc(C)c(O)c(C)c1
76 to 77.5	O=C(c1ccccc1)c1ccc(Cl)cc1
130 to 134	O=C(O)c1ccco1
117 to 118	O=Cc1ccc(O)cc1
175 to 176	O=[N+]([O-])c1ccc(O)c(O)c1
76 to 76.5	Cc1ccc(N)nc1
30 to 31	c1ccc2ocnc2c1
146 to 148	O=C(O)c1ccccc1[N+](=O)[O-]
116 to 119	C=Cc1ccc(-c2ccccc2)cc1
74 to 75	CN(C)c1ccc(C=O)cc1
79 to 80	Cc1cc(C)c(C)cc1C
